In patent US20130030055A1, “COMPOSITIONS AND METHODS FOR TREATING HAIR LOSS, HAIR THINNING, AND HAIR COLOR LOSS” (priority 2010, published 2013):

Tested on: eyelashes
Assay: Randomized vehicle-controlled study: digital image analysis of eyelash length, thickness/fullness, darkness
Format: in vivo, human
Conditions: week 16; p<0.0001 vs vehicle
Excerpt: The primary efficacy variable was the change in GEA score from the baseline measurement to the month 4 (week 16) measurement. A clinical success was defined as at least a 1-grade increase from baseline. […] The digital image analysis was based on standardized equipment and subject preparation. Digital image analysis is a photographic process developed and performed by Canfield Scientific, Inc. The details regarding these processes are maintained by Canfield Scientific, Inc. and are available upon request. The information describing software and technical processes of digital image analysis is maintained in standard operating procedures (SOPs) and work instruction manuals on file at Canfield Scientific, Inc. Upper eyelash length was measured within a defined eyelash boundary for each eye, known as the full area of interest (AOI). For the digital image, the computer software divided the full AOI image into a series of 25 vertical pixel segments. Within each segment, the maximum upper eyelash length (defined as the maximum height of each segment) was measured in pixels. The mean number of pixels over all segments represented the upper eyelash length and was computed for each digital image across both eyes. Upper eyelash length was additionally measured in terms of millimeters (mm). […] Upper eyelash thickness/fullness was measured within 3 preset rectangular areas (proximal, medial, and distal, each 300×25 pixels) positioned at fixed distances from a standardized point on the eyelash margin. […] Eyelash thickness/fullness was assessed across both eyes as an average of the 3 rectangular areas (i.e., average progressive eyelash thickness), individually for the 3 areas (proximal, medial, and distal), within the full AOI, and within the spline (a narrow area approximately 5 pixels wide, bisecting the AOI). Upper eyelash thickness/fullness was additionally measured in terms of mm2. […] Upper eyelash darkness was determined by lash intensity of the upper eyelash area within the spline. […] Eyelash intensity was calculated within the full AOI and within the spline. […]

CCNC(=O)CCC/C=C\C[C@@H]1[C@@H](/C=C/[C@@H](O)CCc2ccccc2)[C@H](O)C[C@@H]1O [bimatoprost]
Mean change from baseline in eyelash darkness, as darker eyelashes: 18% | Mean change from baseline in eyelash length, as increase in length: 25% | Mean change from baseline in eyelash thickness/fullness, as increase: 106%
